Measurements: DBAASP
In brackets after ≈: the same amount, converted by molar mass.

Key:
Assay in all cases: ≥ marks a high value that may be exact or a test limit, other limits are often not marked, values filed in µg/mL are converted to µM
[1] = test system: Pseudomonas aeruginosa ATCC 27853
[2] = test system: Escherichia coli ATCC 25922
[3] = test system: Staphylococcus aureus ATCC 25923
[4] = test system: Escherichia coli ATCC 11775
[5] = test system: Escherichia coli ATCC 43827
[6] = test system: Bacillus subtilis ATCC 19659
[7] = test system: Candida albicans ATCC 90028
[8] = test system: Candida krusei ATCC 6258
[9] = test system: Candida parapsilosis ATCC 22019
[10] = test system: Escherichia coli ESBL
[11] = test system: Klebsiella pneumoniae
[12] = test system: Escherichia coli NBRC 14237
[13] = test system: Staphylococcus aureus NBRC 12732
[14] = test system: Micrococcus luteus NBRC 12708
[15] = test system: Pseudomonas aeruginosa NBRC 12582
[16] = test system: Staphylococcus aureus ATCC 43300
[17] = test system: Salmonella enterica subsp. enterica serovar Pullorum C79-13
[18] = test system: Staphylococcus epidermidis ATCC 12228
[19] = test system: Salmonella typhimurium ATCC 7731
[20] = test system: Escherichia coli UB1005
[21] = test system: Staphylococcus aureus ATCC 29213
[22] = test system: Bacillus subtilis CMCC 63501
[23] = test system: Pseudomonas aeruginosa ATCC BAA-427
[24] = test system: Escherichia coli DH5alpha
[25] = test system: Staphylococcus aureus ATCC 9144
[26] = test system: Escherichia coli ATCC 10536
[27] = test system: Klebsiella pneumoniae ATCC 27736
[28] = test system: Bacillus subtilis ATCC 6633
[29] = test system: Enterococcus faecalis ATCC 29212
[30] = test system: Acinetobacter baumannii ATCC 19606
[31] = test system: Escherichia coli ATCC 23716
[32] = test system: Bordetella bronchiseptica CUN 11844-99
[33] = test system: Yersinia pestis KIM pYV
[34] = test system: Pseudomonas aeruginosa CUN 4158-02
[35] = test system: Brucella abortus 9.49 (per-)
[36] = test system: Pseudomonas aeruginosa PAO1
[37] = test system: Salmonella enterica subsp. enterica serovar Typhimurium ATCC 14028

Which results are given for `CSCC[C@H](NC(=O)[C@H](CCCN=C(N)N)NC(=O)[C@H](Cc1c[nH]c2ccccc12)NC(=O)[C@H](CCC(N)=O)NC(=O)[C@H](Cc1c[nH]c2ccccc12)NC(=O)[C@H](CCCN=C(N)N)NC(=O)[C@@H](N)CCCN=C(N)N)C(=O)N[C@@H](CCCCN)C(=O)N[C@@H](CCCCN)C(=O)N[C@@H](CC(C)C)C(=O)NCC(=O)O` [RRWQWRMKKLG]?
MIC [1]: 15 µM (≈ 23.2 µg/mL); MIC [2]: 15 µM (≈ 23.2 µg/mL); MIC [3]: 30 µM (≈ 46.3 µg/mL); MIC [4]: 15 µM (≈ 23.2 µg/mL); MIC [5]: 7 µM (≈ 10.8 µg/mL)

With `CC[C@H](C)[C@H](NC(C)=O)C(=O)N[C@@H](Cc1ccccc1)C(=O)NCC(=O)N[C@@H](C)C(=O)N[C@H](C(=O)N[C@@H](Cc1c[nH]c2ccccc12)C(=O)N1CCC[C@H]1C(=O)N[C@@H](CC(C)C)C(=O)N[C@@H](C)C(=O)N[C@@H](CC(C)C)C(=O)NCC(=O)N[C@@H](C)C(=O)N[C@@H](CC(C)C)C(=O)N[C@@H](CCCCN)C(=O)N[C@@H](CC(N)=O)C(=O)N[C@@H](CC(C)C)C(=O)N[C@H](C(=O)N[C@@H](CCCCN)C(N)=O)[C@@H](C)CC)[C@@H](C)CC` [IFGAIWPLALGALKNLIK] as the compound, how does the MIC [1] read?
Its MIC is over 128 µM.

What about the MIC [6] of the same compound?
Its MIC is 4 µM (≈ 7.92 µg/mL).

And the MIC [2]?
Its MIC is 128 µM (≈ 253 µg/mL).

What about the MIC [7] of the same compound?
The MIC was at least 32 µM.

What about the MIC [8] of the same compound?
Its MIC is at least 125 µM.

What about the MIC [9] of the same compound?
The MIC was at least 125 µM.

What about the MIC [3] of the same compound?
The MIC was 4 µM (≈ 7.92 µg/mL).

For `CC(C)C[C@H](NC(=O)[C@H](CCCCN)NC(=O)CNC(=O)[C@H](CCCCN)NC(=O)[C@H](Cc1ccccc1)NC(=O)[C@H](CCCCN)NC(=O)[C@H](Cc1c[nH]c2ccccc12)NC(=O)[C@H](CCCN=C(N)N)NC(=O)[C@H](Cc1ccccc1)NC(=O)[C@H](CCCN=C(N)N)NC(=O)[C@H](CCCN=C(N)N)NC(=O)[C@H](Cc1ccc(O)cc1)NC(=O)[C@H](CO)NC(=O)[C@H](CCCCN)NC(=O)CN)C(=O)N[C@@H](Cc1ccccc1)C(=O)N[C@@H](CC(C)C)C(=O)N[C@@H](Cc1ccccc1)C(=O)NCC(N)=O` [GKSYRRFRWKFKGKLFLFG], which MIC [10] is on record?
The MIC was 4.67 µM (≈ 11.3 µg/mL).

What about the MIC [11] of the same compound?
The MIC was 6.61 µM (≈ 16 µg/mL).

Which results are given for `CC[C@H](C)[C@H](NC(=O)CNC(=O)[C@H](C)NC(=O)[C@H](CC(C)C)NC(=O)[C@H](CC(C)C)NC(=O)CNC(=O)[C@@H]1CCCN1C(=O)[C@H](CC(C)C)NC(=O)[C@H](CC(C)C)NC(=O)[C@H](CC(N)=O)NC(=O)[C@H](CC(C)C)NC(=O)[C@H](CC(C)C)NC(=O)[C@@H](N)CCCCN)C(=O)N[C@@H](Cc1ccccc1)C(N)=O` [KLLNLLPGLLAGIF]?
MIC [12]: 12.5 µM (≈ 18.5 µg/mL); MIC [13]: 12.5 µM (≈ 18.5 µg/mL); MIC [14]: 25 µM (≈ 37 µg/mL); MIC [15]: ≥ 50 µM

Which results are given for `CC(C)C[C@H](NC(=O)[C@H](CCCCN)NC(=O)[C@H](CCCCN)NC(=O)[C@H](C)NC(=O)[C@@H](NC(=O)[C@H](CCCCN)NC(=O)[C@H](CO)NC(=O)[C@H](CC(C)C)NC(=O)[C@H](Cc1c[nH]c2ccccc12)NC(=O)[C@H](CC(C)C)NC(=O)[C@H](CCCCN)NC(=O)[C@H](CCCCN)NC(=O)[C@H](C)NC(=O)[C@@H](NC(=O)[C@H](CCCCN)NC(=O)[C@H](CO)NC(=O)[C@H](CC(C)C)NC(=O)[C@@H](N)Cc1c[nH]c2ccccc12)[C@@H](C)O)[C@@H](C)O)C(N)=O` [WLSKTAKKLWLSKTAKKL]?
MIC [1]: 16 µM (≈ 34.1 µg/mL); MIC [16]: 128 µM (≈ 273 µg/mL); MIC [2]: 8 µM (≈ 17 µg/mL); MIC [17]: 16 µM (≈ 34.1 µg/mL); MIC [18]: 128 µM (≈ 273 µg/mL); MIC [19]: ≥ 32 µM; MIC [20]: 8 µM (≈ 17 µg/mL); MIC [21]: 128 µM (≈ 273 µg/mL); MIC [22]: ≥ 64 µM

Which MIC [23] does the source give for `CC[C@H](C)[C@H](NC(=O)CN)C(=O)NCC(=O)N[C@@H](C)C(=O)N[C@H](C(=O)N[C@H](C(=O)N[C@@H](CCCCN)C(=O)N[C@H](C(=O)N[C@@H](CC(C)C)C(=O)N[C@H](C(=O)N[C@H](C(=O)NCC(=O)N[C@H](C(=O)N1CCC[C@H]1C(=O)N[C@@H](C)C(=O)N[C@H](C(=O)N[C@H](C(=O)N[C@@H](CO)C(=O)N[C@@H](Cc1c[nH]c2ccccc12)C(=O)N[C@H](C(=O)N[C@@H](CCCCN)C(=O)N[C@@H](CCCN=C(N)N)C(=O)N[C@@H](CCCCN)C(=O)N[C@@H](CCCN=C(N)N)C(=O)N[C@@H](CCC(N)=O)C(=O)N[C@@H](CCC(N)=O)C(N)=O)[C@@H](C)CC)[C@@H](C)CC)C(C)C)C(C)C)[C@@H](C)O)[C@@H](C)O)C(C)C)C(C)C)C(C)C` [GIGAVVKVLTTGVPAVISWIKRKRQQ] here?
Its MIC is 12 µM (≈ 33.7 µg/mL).

And the MIC [24]?
The MIC was 3.5 µM (≈ 9.82 µg/mL).

And the MIC [25]?
The MIC was 3 µM (≈ 8.41 µg/mL).

What about the MIC [26] of the same compound?
The MIC was 3.3 µM (≈ 9.25 µg/mL).

What about the MIC [27] of the same compound?
Its MIC is 2.1 µM (≈ 5.89 µg/mL).

What about the MIC [28] of the same compound?
The MIC was 2.5 µM (≈ 7.01 µg/mL).

What does the source list for `CSCC[C@H](NC(=O)[C@H](CCCN=C(N)N)NC(=O)[C@H](Cc1c[nH]c2ccccc12)NC(=O)[C@H](CCC(N)=O)NC(=O)[C@H](Cc1c[nH]c2ccccc12)NC(=O)[C@H](CCCN=C(N)N)NC(=O)[C@H](CCCN=C(N)N)NC(=O)[C@H](C)NC(=O)[C@H](CCCCN)NC(=O)[C@@H](N)Cc1ccccc1)C(=O)N[C@@H](CCCCN)C(=O)N[C@@H](CCCCN)C(=O)N[C@@H](CC(C)C)C(=O)NCC(=O)N[C@@H](C)C(=O)O` [FKARRWQWRMKKLGA]?
MIC [1]: 48 µM (≈ 94.2 µg/mL); MIC [2]: 24 µM (≈ 47.1 µg/mL); MIC [29]: 48 µM (≈ 94.2 µg/mL); MIC [3]: 48 µM (≈ 94.2 µg/mL); MIC [4]: ≥ 48 µM; MIC [5]: 12 µM (≈ 23.5 µg/mL)

For `CC[C@H](C)[C@H](N)C(=O)N[C@@H](CO)C(=O)N[C@@H](CCCCN)C(=O)N[C@@H](CCCN=C(N)N)C(=O)N[C@H](C(=O)N[C@@H](CC(C)C)C(=O)N[C@H](C(=O)NCC(=O)N[C@@H](CCCCN)C(=O)N[C@@H](CCCCN)C(N)=O)[C@@H](C)O)[C@@H](C)CC` [ISKRILTGKK], which MIC [30] is on record?
The MIC was over 224 µM.

What about the MIC [16] of the same compound?
The MIC was over 224 µM.

And the MIC [2]?
The MIC was over 224 µM.

And the MIC [31]?
The MIC was at least 224 µM.

What about the MIC [32] of the same compound?
The MIC was at least 224 µM.

And the MIC [33]?
Its MIC is at least 224 µM.

What about the MIC [34] of the same compound?
The MIC was at least 224 µM.

What about the MIC [35] of the same compound?
Its MIC is at least 56 µM.

How did the MIC [1] turn out when `CC[C@H](C)[C@H](NC(=O)[C@H](CCCN=C(N)N)NC(=O)[C@@H](N)Cc1ccccc1)C(=O)N[C@@H](CCCN=C(N)N)C(=O)N[C@H](C(=O)N[C@@H](CCCN=C(N)N)C(=O)N[C@H](C(N)=O)C(C)C)C(C)C` [FRIRVRV] was run?
Its MIC is 16 µM (≈ 15.1 µg/mL).

What about the MIC [36] of the same compound?
Its MIC is 32 µM (≈ 30.2 µg/mL).

What about the MIC [37] of the same compound?
Its MIC is 16 µM (≈ 15.1 µg/mL).

And the MIC [18]?
The MIC was 32 µM (≈ 30.2 µg/mL).

What about the MIC [19] of the same compound?
Its MIC is at least 32 µM.

What about the MIC [29] of the same compound?
Its MIC is 32 µM (≈ 30.2 µg/mL).

And the MIC [20]?
Its MIC is at least 32 µM.

And the MIC [22]?
The MIC was 16 µM (≈ 15.1 µg/mL).
